According to ChEMBL document CHEMBL1759876, “PNA containing isocytidine nucleobase: synthesis and recognition of double helical RNA” (Bioorg Med Chem Lett, 2011):

Key:
Type in all cases: nucleic-acid assay
Hairpin ribozyme RNA [1] = test: Binding affinity to double helical RNA hairpin HRP1 in sodium acetate buffer at pH 5.5
Hairpin ribozyme RNA [2] = test: Binding affinity to double helical RNA hairpin HRP3 in sodium acetate buffer at pH 5.5
Hairpin ribozyme RNA [3] = test: Binding affinity to double helical RNA hairpin HRP2 in sodium acetate buffer at pH 5.5
Hairpin ribozyme RNA [4] = test: Binding affinity to double helical RNA hairpin HRP4 in sodium acetate buffer at pH 5.5

| SMILES | Ka (Hairpin ribozyme RNA [1]) | Ka (Hairpin ribozyme RNA [2]) | Ka (Hairpin ribozyme RNA [3]) | Ka (Hairpin ribozyme RNA [4]) |
| --- | --- | --- | --- | --- |
| Cc1cn(CC(=O)N(CCNC(=O)CN(CCNC(=O)CN(CCNC(=O)CN(CCNC(=O)CN(CCNC(=O)[C@@H](N)CCCCN)C(=O)Cn2ccc(N)nc2=O)C(=O)Cn2cc(C)c(=O)[nH]c2=O)C(=O)Cn2ccc(N)nc2=O)C(=O)Cn2cc(C)c(=O)[nH]c2=O)CC(=O)NCCN(CC(N)=O)C(=O)Cn2ccc(N)nc2=O)c(=O)[nH]c1=O | 2.7 ×10⁶ /M | 0.5 ×10⁶ /M | 47 ×10⁶ /M | 0.02 ×10⁶ /M |
| Cc1cn(CC(=O)N(CCNC(=O)CN(CCNC(=O)CN(CCNC(=O)CN(CCNC(=O)CN(CCNC(=O)[C@@H](N)CCCCN)C(=O)Cn2ccc(N)nc2=O)C(=O)Cn2cc(C)c(=O)[nH]c2=O)C(=O)Cn2ccc(N)nc2=O)C(=O)Cn2ccc(N)nc2=O)CC(=O)NCCN(CC(N)=O)C(=O)Cn2ccc(N)nc2=O)c(=O)[nH]c1=O | 84 ×10⁶ /M | 0.5 ×10⁶ /M | 0.4 ×10⁶ /M | 0.2 ×10⁶ /M |
| Cc1cn(CC(=O)N(CCNC(=O)CN(CCNC(=O)CN(CCNC(=O)CN(CCNC(=O)[C@@H](N)CCCCN)C(=O)Cn2ccc(N)nc2=O)C(=O)Cn2cc(C)c(=O)[nH]c2=O)C(=O)Cn2ccc(N)nc2=O)CC(=O)NCCN(CC(=O)NCCN(CC(N)=O)C(=O)Cn2ccc(N)nc2=O)C(=O)Cn2cc(C)c(=O)[nH]c2=O)c(N)nc1=O | 0.51 ×10⁶ /M | 1.01 ×10⁶ /M | 0.82 ×10⁶ /M | 0.77 ×10⁶ /M |

Other lines, results leading:

| Ka (Hairpin ribozyme RNA [1]) | Ka (Hairpin ribozyme RNA [2]) | Ka (Hairpin ribozyme RNA [3]) | Ka (Hairpin ribozyme RNA [4]) | SMILES |
| --- | --- | --- | --- | --- |
| 6 ×10⁶ /M | 0.7 ×10⁶ /M | 1.6 ×10⁶ /M | 0.05 ×10⁶ /M | Cc1cn(CC(=O)N(CCNC(=O)CN(CCNC(=O)CN(CCNC(=O)CN(CCNC(=O)CN(CCNC(=O)[C@@H](N)CCCCN)C(=O)Cn2ccc(N)nc2=O)C(=O)Cn2cc(C)c(=O)[nH]c2=O)C(=O)Cn2ccc(N)nc2=O)C(=O)Cn2cnc3ncnc(N)c32)CC(=O)NCCN(CC(N)=O)C(=O)Cn2ccc(N)nc2=O)c(=O)[nH]c1=O |
| 1.5 ×10⁶ /M | 0.2 ×10⁶ /M | 0.4 ×10⁶ /M | 0.09 ×10⁶ /M | Cc1cn(CC(=O)N(CCNC(=O)CN(CCNC(=O)CN(CCNC(=O)CN(CCNC(=O)CN(CCNC(=O)[C@@H](N)CCCCN)C(=O)Cn2ccc(N)nc2=O)C(=O)Cn2cc(C)c(=O)[nH]c2=O)C(=O)Cn2ccc(N)nc2=O)C(=O)Cn2cnc3nc(N)[nH]c(=O)c32)CC(=O)NCCN(CC(N)=O)C(=O)Cn2ccc(N)nc2=O)c(=O)[nH]c1=O |
